# Measurements taken from ChEMBL document CHEMBL3120070, “Antimycobacterial evaluation of novel hybrid arylidene thiazolidine-2,4-diones” (Bioorg Med Chem Lett, 2014).
# pEC50: −log10 of the molar value.
# Experiments:
# [1] = tested on: Mycobacterium tuberculosis; experiment: Potency index, ratio of pyrimethamine MIC90 to compound MIC90 for Mycobacterium tuberculosis H37Rv; format: functional
# [2] = tested on: Mycobacterium tuberculosis; experiment: Antimycobacterial activity against Mycobacterium tuberculosis H37Rv assessed as growth inhibition by Alamar Blue staining-based broth microdilution assay; format: functional, organism-based
# [3] = tested on: Vero; experiment: Cytotoxicity against African green monkey Vero cells assessed as cell viability up to 62.5 ug/mL after 72 hrs by MTT assay; format: cell-based; settings: chlorocebus sabaeus
# [4] = tested on: Mycobacterium tuberculosis; experiment: Potency index, ratio of pyrimethamine EC90 to compound EC90 for Mycobacterium tuberculosis H37Rv; format: functional
# [5] = tested on: Mycobacterium tuberculosis; experiment: Potency index, ratio of pyrimethamine EC50 to compound EC50 for Mycobacterium tuberculosis H37Rv; format: functional
# [6] = tested on: Mycobacterium tuberculosis; experiment: Potency index, ratio of cycloserine EC50 to compound EC50 for Mycobacterium tuberculosis H37Rv; format: functional
SMILES,Ratio [1],pEC50 [2],EC90 [2] [µM],MIC90 [2] [µM],Activity [3],Ratio [4],Ratio EC50 [5],Ratio EC50 [6]
COc1ccc(/C=C2\SC(=O)N(C(C(=O)C3CC3)c3ccccc3F)C2=O)cc1OC (stereo unspecified),4,5.10,16,25,Non-toxic,,,
COc1cc(OC)c(/C=C2\SC(=O)N(C(C(=O)C3CC3)c3ccccc3F)C2=O)c(OC)c1 (stereo unspecified),,4.89,27,50,Non-toxic,,,
COc1cc(/C=C2\SC(=O)N(C(C(=O)C3CC3)c3ccccc3F)C2=O)cc(OC)c1OC (stereo unspecified),,4.72,53,50,Non-toxic,,,
COc1cc(Br)c(/C=C2\SC(=O)N(C(C(=O)C3CC3)c3ccccc3F)C2=O)cc1O (stereo unspecified),,4.82,54,50,Non-toxic,,,
O=C(C1CC1)C(c1ccccc1F)N1C(=O)S/C(=C\c2ccc(N3CCCCC3)cc2)C1=O (stereo unspecified),4,4.62,36,25,Non-toxic,,,
O=C(C1CC1)C(c1ccccc1F)N1C(=O)S/C(=C\c2cccs2)C1=O (stereo unspecified),4,5.22,11,25,Non-toxic,6.26,5.85,1.95
O=C(C1CC1)C(c1ccccc1F)N1C(=O)S/C(=C\c2cc(Br)cs2)C1=O (stereo unspecified),,4.74,27,50,Non-toxic,,,
O=C(C1CC1)C(c1ccccc1F)N1C(=O)S/C(=C\c2c[nH]c3ccccc23)C1=O (stereo unspecified),4,4.74,27,25,Non-toxic,,,
O=C(C1CC1)C(c1ccccc1F)N1C(=O)S/C(=C\c2ccc3ccccc3n2)C1=O (stereo unspecified),4,4.85,68,25,Non-toxic,,,
O=C(C1CC1)C(c1ccccc1F)N1C(=O)S/C(=C\c2ccc3c(c2)OCO3)C1=O (stereo unspecified),4,5.05,21,25,Non-toxic,,,
O=C(C1CC1)C(c1ccccc1F)N1C(=O)CSC1=O (stereo unspecified),4,5.22,26,25,Non-toxic,,,
O=C(C1CC1)C(c1ccccc1F)N1C(=O)S/C(=C\c2ccccc2)C1=O (stereo unspecified),,4.77,36,50,Non-toxic,,,
O=C(C1CC1)C(c1ccccc1F)N1C(=O)S/C(=C\c2ccc(Cl)cc2)C1=O (stereo unspecified),,4.60,55,50,Non-toxic,,,
O=C(C1CC1)C(c1ccccc1F)N1C(=O)S/C(=C\c2ccc(F)cc2)C1=O (stereo unspecified),4,4.96,25,25,Non-toxic,,,
O=C(C1CC1)C(c1ccccc1F)N1C(=O)S/C(=C\c2ccc(O)cc2)C1=O (stereo unspecified),4,5.00,19,25,Non-toxic,,,
COc1ccc(/C=C2\SC(=O)N(C(C(=O)C3CC3)c3ccccc3F)C2=O)cc1 (stereo unspecified),4,4.96,27,25,Non-toxic,,,
CSc1ccc(/C=C2\SC(=O)N(C(C(=O)C3CC3)c3ccccc3F)C2=O)cc1 (stereo unspecified),4,4.80,25,25,Non-toxic,,,
O=C(C1CC1)C(c1ccccc1F)N1C(=O)S/C(=C\c2ccc(O)c(O)c2)C1=O (stereo unspecified),4,4.68,55,25,Non-toxic,,,
NCC[C@H](O)C(=O)N[C@@H]1C[C@H](N)[C@@H](O[C@H]2O[C@H](CN)[C@@H](O)[C@H](O)[C@H]2O)[C@H](O)[C@H]1O[C@H]1O[C@H](CO)[C@@H](O)[C@H](N)[C@H]1O [AMIKACIN],,,0.08,0.16,,,,
N[C@@H]1CONC1=O [CYCLOSERINE],,4.90,13.5,25,,,,
CC[C@@H](CO)NCCN[C@@H](CC)CO [ETHAMBUTOL],,> 5.81,32.8,12.5,,,,
NNC(=O)c1ccncc1 [ISONIAZID],,6.74,0.29,0.31,,,,
CCc1nc(N)nc(N)c1-c1ccc(Cl)cc1 [PYRIMETHAMINE],,4.43,75,100,,,,
